# Counter-ions that a name gives are not always drawn.
# Biological target: T1, human A3AR (Homo sapiens, UniProt P0DMS8)
# T1 construct: expressed in transfected cells
# T1 sequence (P0DMS8 1-318): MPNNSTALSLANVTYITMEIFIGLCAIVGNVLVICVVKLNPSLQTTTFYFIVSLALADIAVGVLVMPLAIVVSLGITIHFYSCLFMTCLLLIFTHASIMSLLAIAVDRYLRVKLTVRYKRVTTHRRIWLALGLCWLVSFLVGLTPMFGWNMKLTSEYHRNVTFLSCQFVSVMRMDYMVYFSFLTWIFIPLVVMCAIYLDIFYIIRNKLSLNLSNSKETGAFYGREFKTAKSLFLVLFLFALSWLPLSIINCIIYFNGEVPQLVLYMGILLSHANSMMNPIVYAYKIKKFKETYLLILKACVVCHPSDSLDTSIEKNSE
# Assay: LOPAC library primary screen: single concentration (10 μM) inhibition of 25 nM CA200645 binding, PHERAstar FS
# Conditions: not given
row,Compound,% 25 nM CA200645 binding
1,Cc1ccc(/C(=C\CN2CCCC2)c2ccccn2)cc1.Cl [Triprolidine hydrochloride],90.2 ± 0.5%
2,COCc1nc2c([nH]1)c(=O)n(C)c(=O)n2CC(C)C,99.2 ± 10.1%
3,C[N+](C)(C)CCO.[Br-] [Choline bromide],100.0 ± 6.6%
4,COc1ccc(-c2cc(=O)c3c(O)c(OC)c(OC)cc3o2)cc1O [Eupatorin],47.2 ± 12.7%
5,N=C(N)NCCC[C@H](N)C(=O)O [L-Arginine],97.1 ± 5.5%
6,CC(C)OC(=O)C(C)(C)Oc1ccc(C(=O)c2ccc(Cl)cc2)cc1 [Fenofibrate],87.6 ± 17.1%
7,S(-)-UH-301 hydrochloride,106.6 ± 12.1%
8,17alpha-hydroxyprogesterone,104.8 ± 10.6%
9,C[C@@]12C(=O)OC(=O)[C@]1(C)[C@H]1CC[C@@H]2O1 [Cantharidin],89.3 ± 25.6%
10,"Cn1c(=O)c2c(ncn2C)n(C)c1=O [caffeine, reference compound]",95.8 ± 4.7%
11,CSc1ccc2c(c1)N(CCC1CCCCN1C)c1ccccc1S2 (stereo not shown) [Thioridazine hydrochloride],102.5 ± 9.6%
12,COc1ccccc1N1CCNCC1.Cl,114.8 ± 8.3%
13,Cl.NC[C@@H]1O[C@H](c2ccccc2)Cc2c1ccc(O)c2O [A-68930 hydrochloride],95.6 ± 9.3%
14,CNCCc1cnc(CCC(c2ccccc2)c2ccccc2)[nH]1.O=C(O)C(=O)O.O=C(O)C(=O)O [N-Methylhistaprodifen dioxalate salt],99.4 ± 7.3%
15,CCOC(=O)[N-]c1cn(N2CCOCC2)n[o+]1 [Molsidomine],91.8 ± 17.4%
16,C[C@H](N[C@@H](CCc1ccccc1)C(=O)O)C(=O)N1CCC[C@H]1C(=O)O.O.O [Enalaprilat dihydrate],95.6 ± 2.1%
17,CN(C)CC[C@@H](c1ccc(Br)cc1)c1ccccn1 [(+)-Brompheniramine maleate],97.2 ± 7.4%
18,CC[C@]1(O)C[C@H]2CN(CCc3c([nH]c4ccccc34)[C@@](C(=O)OC)(c3cc4c(cc3OC)N(C=O)[C@H]3[C@@](O)(C(=O)OC)[C@H](OC(C)=O)[C@]5(CC)C=CCN6CC[C@]43[C@@H]65)C2)C1 [Vincristine sulfate],106.1 ± 21.2%
19,CN1CC[C@@]2(C)c3cc(OC(=O)Nc4ccccc4)ccc3N(C)[C@@H]12 [Phenserine],81.1 ± 29.6%
20,CC(C)(C)NCC(O)c1cc(O)cc(O)c1.CC(C)(C)NCC(O)c1cc(O)cc(O)c1.O=S(=O)(O)O (stereo not shown) [Terbutaline hemisulfate],102.8 ± 10.1%
21,Cl.NCCNS(=O)(=O)c1cccc2c(Cl)cccc12 [A3 hydrochloride],95.5 ± 8.6%
22,CCOC(=O)C1=C(O)C(=O)N(Cc2ccccc2)C1 [EBPC],98.2 ± 13.5%

row,Compound,% 25 nM CA200645 binding
1,CNCCc1ccc(O)c(O)c1.Cl [N-Methyldopamine hydrochloride],96.1 ± 15.9%
2,CNCCC=C1c2ccccc2CCc2ccccc21 [Nortriptyline hydrochloride],106.1 ± 17.3%
3,N[C@@H](Cc1ccc(F)cc1)C(=O)O [p-Fluoro-L-phenylalanine],98.5 ± 8.4%
4,CNC[C@H](O)c1cccc(O)c1 [Phenylephrine hydrochloride],102.2 ± 12.7%
5,CN1CCN(c2nc3cc(C(F)(F)F)ccc3n3cccc23)CC1.O=C(O)/C=C\C(=O)O [CGS-12066A maleate],97.3 ± 10.3%
6,NCC(CC(=O)O)c1ccc(Cl)cc1 (racemic) [(±)-Baclofen],99.6 ± 6.9%
7,Clc1ccc2nsnc2c1NC1=NCCN1 [Tizanidine hydrochloride],107.2 ± 6.1%
8,C[C@]12C=CC(=O)C=C1CC[C@H]1[C@@H]3C[C@@H](O)[C@](O)(C(=O)CO)[C@@]3(C)C[C@H](O)[C@@]12F [Triamcinolone],95.9 ± 21.3%
9,O=C(Nc1cccc(C(=O)Nc2ccc(S(=O)(=O)O)c3cc(S(=O)(=O)O)cc(S(=O)(=O)O)c23)c1)Nc1cccc(C(=O)Nc2ccc(S(=O)(=O)O)c3cc(S(=O)(=O)O)cc(S(=O)(=O)O)c23)c1 [NF 023],83.8 ± 25.8%
10,Cn1ccnc1 [1-Methylimidazole],115.7 ± 16.4%
11,COc1cc2nc(N3CCCN(C)CC3)nc(NC3CCN(Cc4ccccc4)CC3)c2cc1OC [BIX 01294 trihydrochloride hydrate],97.9 ± 21.2%
12,CCOC(=O)C1=C[C@]2(CC)CCCN3CCc4c(n1c1ccccc41)[C@@H]32 [Vinpocetine],97.3 ± 11.5%
13,Clc1cnc(Oc2ccc(Oc3ncc(Cl)cc3Cl)cc2)c(Cl)c1 [TCPOBOP],93.7 ± 8.4%
14,CN1Cc2c(N)cccc2C(c2ccccc2)C1 (stereo not shown) [Nomifensine maleate],98.5 ± 14.7%
15,CC(=O)OCC(=O)[C@@]1(O)CC[C@H]2[C@@H]3CCC4=CC(=O)CC[C@]4(C)[C@H]3C(=O)C[C@@]21C [Cortisone 21-acetate],92.1 ± 5.7%
16,"CCCOC(=O)c1c(-c2ccccc2)nc(CC)c(C(=O)SCC)c1CCC [MRS 1523, reference compound]",57.3 ± 10.9%
17,CCCN(CCc1ccccc1)C1CCc2c(O)cccc2C1.Cl (racemic) [(±)-PPHT hydrochloride],101.7 ± 5.1%
18,CN1C(C(=O)Nc2ccccn2)=C(O)c2ccccc2S1(=O)=O [Piroxicam],101.0 ± 12.2%
19,OCCN1CCN(CCCN2c3ccccc3Sc3ccc(Cl)cc32)CC1 [Perphenazine],88.8 ± 23.6%
20,C[C@]12C=CC(=O)C=C1CC[C@@H]1C2=CC[C@]2(C)[C@@H](C(=O)CN3CCN(c4cc(N5CCCC5)nc(N5CCCC5)n4)CC3)CC[C@@H]12.O=C(O)/C=C\C(=O)O [U-74389G maleate],36.9 ± 10.8%
21,CC(C)c1cccc(C(C)C)c1O [Propofol],96.0 ± 3.0%
22,Oc1ccccc1O [Pyrocatechol],91.0 ± 7.4%

row,Compound,% 25 nM CA200645 binding
1,Cc1nc2n(c(=O)c1CCN1CCC(c3noc4cc(F)ccc34)CC1)CCCC2O (stereo not shown) [Paliperidone],94.9 ± 1.6%
2,CNC[C@H](O)c1ccc(O)c(O)c1 [(-)-Epinephrine bitartrate],100.5 ± 6.3%
3,Cc1cc(N)c2ccccc2[n+]1CCCCCCCCCC[n+]1c(C)cc(N)c2ccccc21.[Cl-].[Cl-] [Dequalinium chloride hydrate],86.1 ± 10.0%
4,O=P(O)(O)C(Cl)(Cl)P(=O)(O)O [Clodronic acid],98.4 ± 3.5%
5,NCCc1c[nH]c2ccc(O)cc12 [Serotonin hydrochloride],95.8 ± 9.3%
6,N.N.[Cl][Pt][Cl] [Cisplatin],69.0 ± 8.2%
7,COc1ccc(Cc2nccc3cc(OC)c(OC)cc23)cc1OC [Papaverine hydrochloride],86.6 ± 22.0%
8,NC(C(=O)O)C(O)C(=O)O (racemic) [DL-threo-beta-hydroxyaspartic acid],97.0 ± 9.5%
9,"Cl.Clc1ccc(N2CCN(Cc3c[nH]c4ncccc34)CC2)cc1 [L-745,870 hydrochloride]",105.7 ± 4.1%
10,CC(C)(C)c1ccc(/C=C/C(=O)Nc2ccc3c(c2)OCCO3)cc1 [AMG 9810],59.0 ± 6.4%
11,CC[C@H](CO)Nc1nc(NCc2ccccc2)c2ncn(C(C)C)c2n1 [Roscovitine],45.3 ± 8.6%
12,Nc1cc(N2CCCCC2)nc(N)[n+]1[O-] [Minoxidil],96.7 ± 6.2%
13,OC[C@H]1OC(n2cnc3ccccc32)[C@H](O)[C@@H]1O (stereo partly drawn) [D-ribofuranosylbenzimidazole],98.4 ± 15.0%
14,O=C(O)/C=C\C(=O)O.O=C(O)/C=C\C(=O)O.c1cc(CN2CCCCC2)cc(OCCCNc2nc3ccccc3s2)c1 [SKF 95282 dimaleate],120.1 ± 40.0%
15,OC(CCN1CCCCC1)(c1ccccc1)C1CC2C=CC1C2 (stereo not shown) [Biperiden hydrochloride],86.9 ± 6.4%
16,CNCCNS(=O)(=O)c1cccc2cnccc12.Cl.Cl [H-8 dihydrochloride],106.4 ± 6.7%
17,NC12CC3CC(CC(C3)C1)C2 [Amantadine hydrochloride],104.6 ± 3.5%
18,(+)-Catechin Hydrate,94.3 ± 10.9%
19,CC1=C(CC(=O)O)c2cc(F)ccc2/C1=C\c1ccc(S(C)(=O)=O)cc1 [Sulindac sulfone],84.5 ± 13.2%
20,CC(C)c1cccc(C(C)C)c1N1C(=O)c2ccc(O)cc2C1=O [5HPP-33],91.1 ± 9.2%
21,O=c1[nH]c2cc(C(F)(F)F)ccc2n1-c1cc(C(F)(F)F)ccc1O [NS-1619],94.9 ± 11.8%

# Same assay, conditions: % of 25 nM CA200645 binding in the presence of 10 μM compound, LOPAC full screen, A3AR CHO cells
row,Compound,% Total CA200645 binding
1,"CCCOC(=O)c1c(-c2ccccc2)nc(CC)c(C(=O)SCC)c1CCC [MRS 1523, reference compound]",58.3 ± 11.4%
2,"Nc1ccc(CCNc2ncnc3c2ncn3[C@@H]2O[C@H](CO)[C@@H](O)[C@H]2O)cc1 [APNEA, reference compound]",41.0 ± 7.2%

# Same assay, conditions: % of control wells (1% DMSO and 25 nM CA200645); compounds at 10 µM; whole live cells expressing the A3AR; mean ± SD, three experiments in duplicate
row,Compound,% 25 nM CA200645 binding
1,O=C(O)/C=C/c1ccc(O)c(O)c1 [Caffeic Acid],100.0 ± 4.2%
2,Cc1nc2c([nH]1)c(=O)n(C)c(=O)n2Cc1ccco1 [Furafylline],49.5± 5.8%

# Same assay, conditions: compounds tested at 10 µM; % of control wells (1% DMSO and 25 nM CA200645); whole live cells expressing the A3AR; mean ± SD, three experiments in duplicate
row,Compound,% 25 nM CA200645 binding
1,O=C(O)c1ccccc1Nc1cccc(OCc2ccc3ccccc3n2)c1 [SR 2640],103.1 ± 17.1%
